From patent publication US12202835B2, “Substituted aromatic ring-linked dioxinoquinazolines and dioxinoquinolines as kinase inhibitors” (BEIJING SCITECH-MQ PHARMACEUTICALS LIMITED, priority 2018, dated 2025)
pIC50: −log10 of the molar value.

What was measured:
TRKA kinase = TRKA kinase (Homo sapiens (Human), UniProt P04629); assay: Assay of small molecular compounds for inhibiting the activity of TRKA kinase (LANCE TR-FRET); format: biochemical
Method in brief: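 LANCE TR-FRET with ULight-TK peptide; compounds pre-incubated 5 min with TRKA (2× solution 2 nM), then substrate/ATP added (4× mix: 400 nM peptide, 40 μM ATP). Reaction 60 min at room temperature in dark, 1% DMSO final; stopped, detection developed 60 min, signal read.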

c-MET kinase = c-MET kinase (Homo sapiens (Human), UniProt P08581); assay: Assay of small molecular compounds for inhibiting the activity of c-MET kinase (LANCE TR-FRET); format: biochemical; conditions: read-out: CMET IC50
Sequence of c-MET kinase (P08581 25-1390): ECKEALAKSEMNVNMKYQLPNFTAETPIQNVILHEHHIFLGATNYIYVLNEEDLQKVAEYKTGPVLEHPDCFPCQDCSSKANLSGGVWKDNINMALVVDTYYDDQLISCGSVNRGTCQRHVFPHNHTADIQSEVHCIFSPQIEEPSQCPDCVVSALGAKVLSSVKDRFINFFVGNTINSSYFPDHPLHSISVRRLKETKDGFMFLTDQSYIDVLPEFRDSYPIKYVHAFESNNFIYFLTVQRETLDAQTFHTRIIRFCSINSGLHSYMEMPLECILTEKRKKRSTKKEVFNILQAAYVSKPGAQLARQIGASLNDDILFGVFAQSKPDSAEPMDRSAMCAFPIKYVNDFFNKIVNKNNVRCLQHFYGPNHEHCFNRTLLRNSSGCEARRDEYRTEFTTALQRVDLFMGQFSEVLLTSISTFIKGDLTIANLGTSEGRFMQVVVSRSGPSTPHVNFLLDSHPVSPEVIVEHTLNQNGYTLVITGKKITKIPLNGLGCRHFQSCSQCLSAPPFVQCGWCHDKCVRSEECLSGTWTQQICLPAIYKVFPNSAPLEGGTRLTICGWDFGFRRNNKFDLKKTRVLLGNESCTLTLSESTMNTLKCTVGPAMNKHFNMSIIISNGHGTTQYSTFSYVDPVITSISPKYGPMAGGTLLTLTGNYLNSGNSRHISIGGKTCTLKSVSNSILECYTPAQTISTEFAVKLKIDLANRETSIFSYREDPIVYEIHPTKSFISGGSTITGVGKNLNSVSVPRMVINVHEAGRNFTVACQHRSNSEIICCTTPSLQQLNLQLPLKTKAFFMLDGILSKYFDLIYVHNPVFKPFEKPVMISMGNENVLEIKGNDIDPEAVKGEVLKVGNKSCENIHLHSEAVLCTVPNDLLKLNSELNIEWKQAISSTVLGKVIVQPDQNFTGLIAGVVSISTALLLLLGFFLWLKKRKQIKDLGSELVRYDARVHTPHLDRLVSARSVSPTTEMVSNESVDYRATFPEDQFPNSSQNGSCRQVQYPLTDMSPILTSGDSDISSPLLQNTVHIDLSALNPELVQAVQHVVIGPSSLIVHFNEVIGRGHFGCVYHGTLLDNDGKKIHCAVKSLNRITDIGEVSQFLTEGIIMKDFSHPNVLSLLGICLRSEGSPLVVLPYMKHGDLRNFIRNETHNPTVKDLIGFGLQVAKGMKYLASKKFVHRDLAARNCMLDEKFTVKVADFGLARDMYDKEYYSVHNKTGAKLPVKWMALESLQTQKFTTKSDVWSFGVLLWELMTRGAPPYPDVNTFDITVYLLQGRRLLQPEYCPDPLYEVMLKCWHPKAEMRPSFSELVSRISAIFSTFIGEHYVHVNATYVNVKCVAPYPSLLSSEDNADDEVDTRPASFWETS
Method in brief: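 LANCE TR-FRET assay with c-MET at 1 nM final after a 5 min room-temperature preincubation with compound (11-point, 3-fold series, 2500–0.042 nM final, 4% DMSO). ULight-JAK-1 (Tyr1023) peptide (100 nM final) and ATP (10 μM final) reacted 60 min in the dark. Inhibition was taken relative to controls, then IC50 fitted.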

Ba/F3 LMNA-NTRK1 cells = assay: Assay for inhibiting the proliferation of Ba/F3 LMNA-NTRK1 cells (CCK-8); format: cell-based; conditions: Mus musculus, BaF3
Method in brief: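 Cells were seeded and cultured overnight, then treated with graded compound concentrations (final DMSO 0.25%) for 72 h. CCK-8 was added for 1–2 h at 37 °C and OD450 read. Survival was normalised to untreated and cell-free blank wells, and IC50 was fitted.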

Sequence of TRKA kinase (P04629 33-796): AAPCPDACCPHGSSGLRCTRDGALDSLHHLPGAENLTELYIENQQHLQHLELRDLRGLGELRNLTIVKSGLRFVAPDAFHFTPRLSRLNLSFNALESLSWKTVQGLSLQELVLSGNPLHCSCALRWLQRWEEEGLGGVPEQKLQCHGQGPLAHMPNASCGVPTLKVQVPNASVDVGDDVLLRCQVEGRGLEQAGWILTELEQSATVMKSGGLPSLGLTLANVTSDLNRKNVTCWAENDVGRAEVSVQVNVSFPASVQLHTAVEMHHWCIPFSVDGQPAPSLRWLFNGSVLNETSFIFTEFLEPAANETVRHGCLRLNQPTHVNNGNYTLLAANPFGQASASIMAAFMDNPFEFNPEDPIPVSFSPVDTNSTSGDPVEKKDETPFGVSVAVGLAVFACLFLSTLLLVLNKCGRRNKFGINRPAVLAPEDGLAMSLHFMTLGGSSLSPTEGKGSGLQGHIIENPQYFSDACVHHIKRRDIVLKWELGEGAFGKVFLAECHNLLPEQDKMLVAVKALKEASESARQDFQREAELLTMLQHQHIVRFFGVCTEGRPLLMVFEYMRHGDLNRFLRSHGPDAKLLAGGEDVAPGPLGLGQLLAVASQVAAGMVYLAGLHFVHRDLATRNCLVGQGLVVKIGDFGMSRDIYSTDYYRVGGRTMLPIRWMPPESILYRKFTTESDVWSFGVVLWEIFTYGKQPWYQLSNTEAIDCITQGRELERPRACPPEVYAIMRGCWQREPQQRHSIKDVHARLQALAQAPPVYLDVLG

Row | pIC50 (TRKA kinase) | pIC50 (c-MET kinase) | pIC50 (Ba/F3 LMNA-NTRK1 cells) | Compound
1 | > 7.30 | ≥ 7.30 | > 7.30 | CCOc1ccn(-c2ccc(F)cc2)c(=O)c1C(=O)Nc1ccc(Oc2ccnc3cc(OCCOC)c4c(c23)OCCO4)c(F)c1 [Example 36, N-(3-fluoro-4-((5-(2-methoxyethoxy)-2,3-dihydro-[1,4]dioxino[2,3-f]quinolin-10-yl)oxy)phenyl)-1-(4-fluorophenyl)-4-ethoxy-2-oxo-1,2-dihydropyridine-3-carboxamide]
2 | > 7.30 | ≥ 7.30 | > 7.30 | CCn1cc(C(=O)Nc2ccc(Oc3ccnc4cc(OC)c5c(c34)OCCO5)c(F)c2)c(=O)n(-c2ccc(F)cc2)c1=O [Example 37, N-(3-fluoro-4-((5-methoxy-2,3-dihydro-[1,4]dioxino[2,3-f]quinolin-10-yl)oxy)phenyl)-3-(4-fluorophenyl)-1-ethyl-2,4-dioxo-1,2,3,4-tetrahydropyrimidine-5-carboxamide]
3 | > 7.30 | ≥ 7.30 | > 7.30 | CCn1cc(C(=O)Nc2ccc(Oc3ccnc4cc(OCCCN5CCOCC5)c5c(c34)OCCO5)c(F)c2)c(=O)n(-c2ccc(F)cc2)c1=O [Example 38, N-(3-fluoro-4-((5-(3-morpholinopropoxy)-2,3-dihydro-[1,4]dioxino[2,3-f]quinolin-10-yl)oxy)phenyl)-3-(4-fluorophenyl)-1-ethyl-2,4-dioxo-1,2,3,4-tetrahydropyrimidine-5-carboxamide]
4 | > 7.30 | ≥ 7.30 | > 7.30 | Cn1cc(C(=O)Nc2ccc(Oc3ccnc4cc(OCCCN5CCCCC5)c5c(c34)OCCO5)c(F)c2)c(=O)n(-c2ccc(F)cc2)c1=O [Example 39, N-(3-fluoro-4-((5-(3-(piperidin-1-yl)propoxy)-2,3-dihydro-[1,4]dioxino[2,3-f]quinolin-10-yl)oxy)phenyl)-3-(4-fluorophenyl)-1-methyl-2,4-dioxo-1,2,3,4-tetrahydropyrimidine-5-carboxamide]
5 | > 7.30 | ≥ 7.30 | > 7.30 | CC(C)n1cc(C(=O)Nc2ccc(Oc3ccnc4cc(OCCCN5CCCCC5)c5c(c34)OCCO5)c(F)c2)c(=O)n(-c2ccc(F)cc2)c1=O [Example 40, N-(3-fluoro-4-((5-(3-(piperidin-1-yl)propoxy)-2,3-dihydro-[1,4]dioxino[2,3-f]quinolin-10-yl)oxy)phenyl)-3-(4-fluorophenyl)-1-isopropyl-2,4-dioxo-1,2,3,4-tetrahydropyrimidine-5-carboxamide]
6 | > 7.30 | ≥ 7.30 | > 7.30 | CCn1cc(C(=O)Nc2ccc(Oc3ccnc4cc(OCCCN5CCCCC5)c5c(c34)OCCO5)c(F)c2)c(=O)n(-c2ccc(F)cc2)c1=O [Example 41, N-(3-fluoro-4-((5-(3-(piperidin-1-yl)propoxy)-2,3-dihydro-[1,4]dioxino[2,3-f]quinolin-10-yl)oxy)phenyl)-3-(4-fluorophenyl)-1-ethyl-2,4-dioxo-1,2,3,4-tetrahydropyrimidine-5-carboxamide]
7 | > 7.30 | ≥ 7.30 | > 7.30 | COCCOc1cc2nccc(Oc3ccc(NC(=O)c4cn(C)c(=O)n(-c5ccc(F)cc5)c4=O)cc3F)c2c2c1OCCO2 [Example 42, N-(3-fluoro-4-((5-(2-methoxyethoxy)-2,3-dihydro-[1,4]dioxino[2,3-f]quinolin-10-yl)oxy)phenyl)-3-(4-fluorophenyl)-1-methyl-2,4-dioxo-1,2,3,4-tetrahydropyrimidine-5-carboxamide]
8 | > 7.30 | ≥ 7.30 | 6.70 to 7.30 | CC(C)n1cc(C(=O)Nc2ccc(Oc3ccnc4cc(OCCCN5CCC(C)(O)CC5)c5c(c34)OCCO5)c(F)c2)c(=O)n(-c2ccc(F)cc2)c1=O [Example 94, N-(3-fluoro-4-((5-(3-(4-methyl-4-hydroxypiperidin-1-yl)propoxy)-2,3-dihydro-[1,4]dioxino[2,3-f]quinolin-10-yl)oxy)phenyl)-3-(4-fluorophenyl)-1-isopropyl-2,4-dioxo-1,2,3,4-tetrahydropyrimidine-5-carboxamide]
9 | > 7.30 | ≥ 7.30 | 6.70 to 7.30 | COCCN(C)CCCOc1cc2nccc(Oc3ccc(NC(=O)c4cn(C(C)C)c(=O)n(-c5ccc(F)cc5)c4=O)cc3F)c2c2c1OCCO2 [Example 95, N-(3-fluoro-4-((5-(3-((2-methoxyethyl)(methyl)amino)propoxy)-2,3-dihydro-[1,4]dioxino[2,3-f]quinolin-10-yl)oxy)phenyl)-3-(4-fluorophenyl)-1-isopropyl-2,4-dioxo-1,2,3,4-tetrahydropyrimidine-5-carboxamide]
10 | > 7.30 | ≥ 7.30 | > 7.30 | CC(C)n1cc(C(=O)Nc2ccc(Oc3ccnc4cc(OCCCN(C)C5CCC5)c5c(c34)OCCO5)c(F)c2)c(=O)n(-c2ccc(F)cc2)c1=O [Example 96, N-(3-fluoro-4-((5-(3-((cyclobutyl)(methyl)amino)propoxy)-2,3-dihydro-[1,4]dioxino[2,3-f]quinolin-10-yl)oxy)phenyl)-3-(4-fluorophenyl)-1-isopropyl-2,4-dioxo-1,2,3,4-tetrahydropyrimidine-5-carboxamide]
11 | > 7.30 | 6.30 to 7.30 | > 7.30 | CC(C)n1cc(C(=O)Nc2ccc(Oc3ccnc4cc(OCCCN5CCOCC5)c5c(c34)OCCO5)c(Cl)c2)c(=O)n(-c2ccc(F)cc2)c1=O [Example 97, N-(3-chloro-4-((5-(3-morpholinopropoxy)-2,3-dihydro-[1,4]dioxino[2,3-f]quinolin-10-yl)oxy)phenyl)-3-(4-fluorophenyl)-1-isopropyl-2,4-dioxo-1,2,3,4-tetrahydropyrimidine-5-carboxamide]
12 | > 7.30 | 6.30 to 7.30 | > 7.30 | Cn1cc(C(=O)Nc2ccc(Oc3ccnc4cc(OCCCN5CCOCC5)c5c(c34)OCCO5)cc2Cl)c(=O)n(-c2ccc(F)cc2)c1=O [Example 98, N-(2-chloro-4-((5-(3-morpholinopropoxy)-2,3-dihydro-[1,4]dioxino[2,3-f]quinolin-10-yl)oxy)phenyl)-3-(4-fluorophenyl)-1-methyl-2,4-dioxo-1,2,3,4-tetrahydropyrimidine-5-carboxamide]
13 | > 7.30 | ≥ 7.30 | < 6.00 | COc1cc2nccc(Oc3ccc(NC(=O)c4cn(CC(=O)O)c(=O)n(-c5ccc(F)cc5)c4=O)cc3F)c2c2c1OCCO2 [Example 104, 2-(5-((3-fluoro-4-((5-methoxy-2,3-dihydro-[1,4]dioxino[2,3-f]quinolin-10-yl)oxy)phenyl)carbamoyl)-3-(4-fluorophenyl)-2,4-dioxo-3,4-dihydropyrimidin-1(2H)-yl)acetic acid]
14 | > 7.30 | ≥ 7.30 | 6.70 to 7.30 | CCOc1ccn(-c2ccc(F)cc2)c(=O)c1C(=O)Nc1ccc(Oc2ccnc3cc(OCC4(N)CC4)c4c(c23)OCCO4)c(F)c1 [Example 105, N-(4-((5-((1-aminocyclopropyl)methoxy)-2,3-dihydro-[1,4]dioxino[2,3-f]quinolin-10-yl)oxy)-3-fluorophenyl)-4-ethoxy-1-(4-fluorophenyl)-2-oxo-1,2-dihydropyridine-3-carboxamide]
15 | > 7.30 | ≥ 7.30 | > 7.30 | CCOc1ccn(-c2ccc(C)cc2)c(=O)c1C(=O)Nc1ccc(Oc2ccnc3cc(OC)c4c(c23)OCCO4)c(F)c1 [Example 112, N-(3-fluoro-4-((5-methoxy-2,3-dihydro-[1,4]dioxino[2,3-f]quinolin-10-yl)oxy)phenyl)-2-oxo-4-ethoxy-1-(4-methylphenyl)-1,2-dihydropyridin-3-carboxamide]
16 | > 7.30 | ≥ 7.30 | > 7.30 | CCOc1ccn(-c2ccc(Cl)cc2)c(=O)c1C(=O)Nc1ccc(Oc2ccnc3cc(OC)c4c(c23)OCCO4)c(F)c1 [Example 113, N-(3-fluoro-4-((5-methoxy-2,3-dihydro-[1,4]dioxino[2,3-f]quinolin-10-yl)oxy)phenyl)-2-oxo-4-ethoxy-1-(4-chlorophenyl)-1,2-dihydropyridin-3-carboxamide]
17 | > 7.30 | ≥ 7.30 | > 7.30 | CCOc1ccn(-c2ccc(F)cc2)c(=O)c1C(=O)Nc1cc(F)c(Oc2ccnc3cc(OC)c4c(c23)OCCO4)cc1Cl [Example 115, N-(2-chloro-5-fluoro-4-((5-methoxy-2,3-dihydro-[1,4]dioxino[2,3-f]quinolin-10-yl)oxy)phenyl)-4-ethoxy-2-oxo-1-(4-fluorophenyl)-1,2-dihydropyridin-3-carboxamide]
18 | > 7.30 | ≥ 7.30 | > 7.30 | COc1cc2nccc(Oc3cc(Cl)c(NC(=O)c4cn(C)c(=O)n(-c5ccc(F)cc5)c4=O)cc3F)c2c2c1OCCO2 [Example 116, N-(2-chloro-5-fluoro-4-((5-methoxy-2,3-dihydro-[1,4]dioxino[2,3-f]quinolin-10-yl)oxy)phenyl)-3-(4-fluorophenyl)-1-methyl-2,4-dioxo-1,2,3,4-tetrahydropyrimidine-5-carboxamide]
19 | > 7.30 | ≥ 7.30 | > 7.30 | CCOc1ccn(-c2ccc(F)cc2)c(=O)c1C(=O)Nc1ccc(Oc2ccnc3cc(OCC(C)(C)O)c4c(c23)OCCO4)c(F)c1 [Example 120, N-(3-fluoro-4-((5-(2-hydroxy-2-methylpropoxy)-2,3-dihydro-[1,4]dioxino[2,3-f]quinolin-10-yl)oxy)phenyl)-4-ethoxy-1-(4-fluorophenyl)-2-oxo-1,2-dihydropyridine-3-carboxamide]
